Results as given in paper PMC9944328 (Nature Communications, 2023).
Read-outs that look alike come from different tables or passages of the source.

System: SSTR2 mutants
Assay: SSTRs Gi-mediated cAMP inhibition, GloSensor, HEK293, 5 μM forskolin, 15 min room temperature (SSTR2 mutants)
Format: cell-based, human
Design: Best-fit Bottom, cAMP inhibition / Best-fit Top, cAMP inhibition / Span, cAMP inhibition / Bottom (best-fit value) / Top (best-fit value) / Span (best-fit value) / Span (best-fit) / Bottom (best-fit) / Top (best-fit) / Best-fit Bottom / Best-fit Top / Best-fit Span / Top / Span: scale not given here
Experimental: The levels of the intracellular 3′, 5′-cyclic AMP (cAMP) were measured by the GloSensor cAMP assay (Promega) as described in the previous studies[28],[41] which has been widely used. The human full-length SSTRs and mutants were cloned into the pcDNA3.1+ vector with a HA signal sequence followed by a Flag tag at the N-terminus. HEK293 cells (ATCC, CRL-1573) were seeded into 6-well microplates at a density of 1.0 × 10^6 cells/well and cultured for 24 h at 37 °C with 5% CO2. Cells were then co-transfected with SSTR wild-type or mutants and GloSensor plasmids. After 24 h of transfection, the cells were dissociated with TrypLE™ Express Enzyme (1X) (Thermo Fisher Scientific) and collected by centrifugation at 500 × g for 5 min. Then the collected cells were suspended in Hank’s balanced salt solution [HBSS (Thermo Fisher Scientific)] supplemented with […] (YEASEN), and then the suspension cells were seeded into 96-well plates with 90 μl/well. After incubating at room temperature for 40 min, 5 μM forskolin and ligands diluted in HBSS were added to each well and the plates were incubated at room temperature for 15 min. […] were measured using the Synergy H1 microplate reader (BioTek) and the data presented are means of at least three independent experiments.

[1] = cAMP inhibition, SSTR2 F127A-1 (run 1)
[2] = cAMP inhibition, SSTR2 F127A-2 (run 2)
[3] = cAMP inhibition, SSTR2 F127A-3 (run 3)
[4] = cAMP inhibition, SSTR2 F208A-1 (run 1)
[5] = cAMP inhibition, SSTR2 F208A-2 (run 2)
[6] = cAMP inhibition, SSTR2 F208A-3 (run 3)
[7] = cAMP inhibition, SSTR2 I130A-1 (run 1)
[8] = cAMP inhibition, SSTR2 I130A-2 (run 2)
[9] = cAMP inhibition, SSTR2 I130A-3 (run 3)
[10] = cAMP inhibition, SSTR2 Y205A-1 (run 1)
[11] = cAMP inhibition, SSTR2 Y205A-2 (run 2)
[12] = cAMP inhibition, SSTR2 Y205A-3 (run 3)
[13] = cAMP inhibition, SSTR2 T194H, run 1
[14] = cAMP inhibition, SSTR2 T194H, run 2
[15] = cAMP inhibition, SSTR2 T194H, run 3
[16] = cAMP inhibition, SSTR2 T194H, run 4
[17] = cAMP inhibition, SSTR2 V103N, run 1
[18] = cAMP inhibition, SSTR2 V103N, run 2
[19] = cAMP inhibition, SSTR2 V103N, run 3
[20] = cAMP inhibition, SSTR2 V103N, run 4

`C[C@@H](O)[C@@H]1NC(=O)[C@H](CCCCN)NC(=O)[C@@H](Cc2c[nH]c3ccccc23)NC(=O)[C@H](Cc2ccccc2)NC(=O)[C@@H](NC(=O)[C@H](N)Cc2ccccc2)CSSC[C@@H](C(=O)N[C@H](CO)[C@@H](C)O)NC1=O` [octreotide] was tested, and the “Top (best-fit value)” value (W188A-2, run 2) was 109.9, the EC50 (W188A-2, run 2, read-out: EC50 (best-fit value)) was 0.0722 nM and the “Bottom (best-fit value)” value (W188A-3, run 3) was 3.856. For the same compound, the “LogEC50 (best-fit value)” value (W188A-3, run 3) was -9.118, the “Span (best-fit value)” value (W188A-3, run 3) was 88.75 and the “Top (best-fit value)” value (W188A-3, run 3) was 92.61. The EC50 (W188A-3, run 3, read-out: EC50 (best-fit value)) was 0.762 nM, the “Bottom (best-fit)” value (W269A-1) was -8.692 and the “LogEC50 (best-fit)” value (W269A-1) was -8.978. For the same compound, the “Span (best-fit)” value (W269A-1) was 108.2, the “Top (best-fit)” value (W269A-1) was 99.53 and the EC50 (W269A-1, read-out: EC50 (best-fit)) was 1.05 nM. For the same compound, the “Bottom (best-fit)” value (W269A-2) was -48.61, the “LogEC50 (best-fit)” value (W269A-2) was -9.361 and the “Span (best-fit)” value (W269A-2) was 149.9. For the same compound, the “Top (best-fit)” value (W269A-2) was 101.3, the EC50 (W269A-2, read-out: EC50 (best-fit)) was 0.435 nM and the “Bottom (best-fit)” value (W269A-3) was 12.63. The “LogEC50 (best-fit)” value (W269A-3) was -8.938, the “Span (best-fit)” value (W269A-3) was 80.26 and the “Top (best-fit)” value (W269A-3) was 92.88. For the same compound, the EC50 (W269A-3, read-out: EC50 (best-fit)) was 1.15 nM, the “Best-fit Bottom” value (Y302A-1) was -1.091 and the “Best-fit Span” value (Y302A-1) was 74.2. For the same compound, the “Best-fit Top” value (Y302A-1) was 73.11, the LogEC50 (Y302A-1) was -6.976 and the EC50 (Y302A-1, read-out: EC50) was 106 nM. For the same compound, the “Best-fit Bottom” value (Y302A-2) was -6.663, the “Best-fit Span” value (Y302A-2) was 106.6 and the “Best-fit Top” value (Y302A-2) was 99.95. The LogEC50 (Y302A-2) was -7.6, the EC50 (Y302A-2, read-out: EC50) was 25.1 nM and the “Best-fit Bottom” value (Y302A-3) was -0.9588. For the same compound, the “Best-fit Span” value (Y302A-3) was 65.18, the “Best-fit Top” value (Y302A-3) was 64.22 and the LogEC50 (Y302A-3) was -6.976. For the same compound, the “cAMP inhibition potency of mutants” value (alanine replacement of F208, F272, Y302, Q126, D122 in SSTR2) was “significantly decreased the cAMP inhibition potency”, the “Bottom (best-fit value)” value [1] was 3.745 and the “LogEC50 (best-fit value)” value [1] was -9.177. For the same compound, the “Span (best-fit value)” value [1] was 105.4, the “Top (best-fit value)” value [1] was 109.1 and the EC50 (cAMP inhibition, SSTR2 F127A-1 (run 1), read-out: EC50 (best-fit value)) was 0.665 nM. The “Bottom (best-fit value)” value [2] was 6.147, the “LogEC50 (best-fit value)” value [2] was -8.668 and the “Span (best-fit value)” value [2] was 104. The “Top (best-fit value)” value [2] was 110.1, the EC50 (cAMP inhibition, SSTR2 F127A-2 (run 2), read-out: EC50 (best-fit value)) was 2.15 nM and the “Bottom (best-fit value)” value [3] was 2.844. The “LogEC50 (best-fit value)” value [3] was -8.526, the “Span (best-fit value)” value [3] was 104.1 and the “Top (best-fit value)” value [3] was 107. The EC50 (cAMP inhibition, SSTR2 F127A-3 (run 3), read-out: EC50 (best-fit value)) was 2.98 nM, the “Bottom (best-fit value)” value [4] was 10.39 and the “LogEC50 (best-fit value)” value [4] was -7.519. For the same compound, the “Top (best-fit value)” value [4] was 89.25, the EC50 (cAMP inhibition, SSTR2 F208A-1 (run 1), read-out: EC50 (best-fit value)) was 30.3 nM and the “Bottom (best-fit value)” value [5] was -4.181. The “LogEC50 (best-fit value)” value [5] was -7.462, the “Top (best-fit value)” value [5] was 54.09 and the EC50 (cAMP inhibition, SSTR2 F208A-2 (run 2), read-out: EC50 (best-fit value)) was 34.6 nM. For the same compound, the “Bottom (best-fit value)” value [6] was 13.21, the “LogEC50 (best-fit value)” value [6] was -7.519 and the “Top (best-fit value)” value [6] was 113.5. For the same compound, the “Bottom (best-fit value)” value [7] was 14.54, the “LogEC50 (best-fit value)” value [7] was -8.728 and the “Span (best-fit value)” value [7] was 76.49. For the same compound, the “Top (best-fit value)” value [7] was 91.02, the EC50 (cAMP inhibition, SSTR2 I130A-1 (run 1), read-out: EC50 (best-fit value)) was 1.87 nM and the “Bottom (best-fit value)” value [8] was 3.27. The “LogEC50 (best-fit value)” value [8] was -7.739, the “Span (best-fit value)” value [8] was 103.8 and the “Top (best-fit value)” value [8] was 107. The EC50 (cAMP inhibition, SSTR2 I130A-2 (run 2), read-out: EC50 (best-fit value)) was 18.2 nM, the “Bottom (best-fit value)” value [9] was 1.85 and the “LogEC50 (best-fit value)” value [9] was -7.833. The “Span (best-fit value)” value [9] was 103.6, the “Top (best-fit value)” value [9] was 105.4 and the EC50 (cAMP inhibition, SSTR2 I130A-3 (run 3), read-out: EC50 (best-fit value)) was 14.7 nM. For the same compound, the “Bottom (best-fit value)” value [10] was -15.61, the “LogEC50 (best-fit value)” value [10] was -10.22 and the “Span (best-fit value)” value [10] was 114. For the same compound, the “Top (best-fit value)” value [10] was 98.43, the EC50 (cAMP inhibition, SSTR2 Y205A-1 (run 1), read-out: EC50 (best-fit value)) was 0.0606 nM and the “Bottom (best-fit value)” value [11] was -21.77. The “LogEC50 (best-fit value)” value [11] was -10.31, the “Span (best-fit value)” value [11] was 99.08 and the “Top (best-fit value)” value [11] was 77.31. The EC50 (cAMP inhibition, SSTR2 Y205A-2 (run 2), read-out: EC50 (best-fit value)) was 0.0488 nM, the “Bottom (best-fit value)” value [12] was 1.644 and the “LogEC50 (best-fit value)” value [12] was -9.761. For the same compound, the “Span (best-fit value)” value [12] was 161.4, the “Top (best-fit value)” value [12] was 163 and the EC50 (cAMP inhibition, SSTR2 Y205A-3 (run 3), read-out: EC50 (best-fit value)) was 0.173 nM. For the same compound, the “LogEC50 (best-fit)” value [13] was -7.55, the “Top (best-fit)” value [13] was 86.06 and the EC50 (cAMP inhibition, SSTR2 T194H, run 1, read-out: EC50 (best-fit)) was 28.2 nM. The “LogEC50 (best-fit)” value [14] was -7.55, the “Top (best-fit)” value [14] was 86.06 and the EC50 (cAMP inhibition, SSTR2 T194H, run 2, read-out: EC50 (best-fit)) was 28.2 nM. For the same compound, the “LogEC50 (best-fit)” value [15] was -7.274, the “Top (best-fit)” value [15] was 99.32 and the EC50 (cAMP inhibition, SSTR2 T194H, run 3, read-out: EC50 (best-fit)) was 53.2 nM. For the same compound, the “LogEC50 (best-fit)” value [16] was -7.828, the “Top (best-fit)” value [16] was 111.2 and the EC50 (cAMP inhibition, SSTR2 T194H, run 4, read-out: EC50 (best-fit)) was 14.9 nM. For the same compound, the “LogEC50 (best-fit)” value [17] was -9.644, the “Top (best-fit)” value [17] was 94 and the EC50 (cAMP inhibition, SSTR2 V103N, run 1, read-out: EC50 (best-fit)) was 0.227 nM. The “LogEC50 (best-fit)” value [18] was -9.644, the “Top (best-fit)” value [18] was 94 and the EC50 (cAMP inhibition, SSTR2 V103N, run 2, read-out: EC50 (best-fit)) was 0.227 nM. For the same compound, the “LogEC50 (best-fit)” value [19] was -9.75, the “Top (best-fit)” value [19] was 93.06 and the EC50 (cAMP inhibition, SSTR2 V103N, run 3, read-out: EC50 (best-fit)) was 0.178 nM. The “LogEC50 (best-fit)” value [20] was -9.608, the “Top (best-fit)” value [20] was 108.8 and the EC50 (cAMP inhibition, SSTR2 V103N, run 4, read-out: EC50 (best-fit)) was 0.247 nM.
